Assay results from PMC9011347, “Small-Molecule Inhibitors Targeting Lipolysis in Human Adipocytes” (Journal of the American Chemical Society, 2022).

Columns and labels:
Experiment in all cases: TAG hydrolase assay, humanized mouse ATGL variants
Format in all cases: biochemical
mouse ATGL C97F = biological target: T1, mouse ATGL C97F (Mus musculus, UniProt Q8BJ56, C97F); conditions: variant C97F, NG-497 (10 μM) or Atglistatin (10 μM)
T1 construct: host or cells: Expi293 cells, cell lysate
Experimental: (§1) Figure 5 Analysis of chimeric proteins comprising human and mouse ATGL. (a) Schematic view of the minimal active domain of wild-type and chimeric ATGL variants (c1–c9). Nonidentical aa are indicated in blue and red for mouse and human ATGL, respectively. ATGL variants were expressed in Expi293 cells and TAG hydrolase activity was determined in cell lysates in the presence or absence of NG-497 (10 μM) and Atglistatin (10 μM), respectively. Inhibition of ATGL variants by respective inhibitors (tick mark) and lack of inhibition (cross) is indicated at the right edge. The expression of all ATGL variants was confirmed by Western blotting analysis (Figure S6). (b) Dose-dependent inhibition of human ATGL (aa 1–288) and c1 (human aa 1–158 and mouse aa 159–288) by NG-497. (c) Dose-dependent inhibition of mouse ATGL (aa 1–288) and c2 (mouse aa 1–158 and human aa 159–288) by Ai. IC50 values are shown in the insets. Data are presented as relative inhibition of respective DMSO controls and are indicated as mean ± SD. (d) 3D homology model of the minimal active domain of mouse ATGL (M1–L254) depicted as a cartoon. Residues 1–178 are in blue, and residues 179–254 are in gray. S47 and D166 comprising the active site are represented as green sticks. T101, C106, R109, N111, and S133 are colored in orange, A60, N68, I69, T93, C97, and T146 are colored in magenta. TEXT PRINTED IN THE PICTURE: (b) NG-497: IC50 [μM] (human): 1.3±0.1; IC50 [μM] (c1): 1.3±0.1 | (b) Ai: IC50 [μM] (human): n.det.; IC50 [μM] (c1): n.det. | (c) NG-497: IC50 [μM] (mouse): n.det.; IC50 [μM] (c2): n.det. | (c) Ai: IC50 [μM] (mouse): 2.5±0.3; IC50 [μM] (c2): 2.4±0.1 […]
(§2) The region between aa 60 and 146 of human and mouse ATGL comprises 12 nonidentical aa. We generated 3D homology models for the minimal active domain of mouse ATGL to obtain more detailed insight into the topology of the relevant region (Figure 5d). Based on this model, aa T101, C106, R109, N111, and S133 locate at peripheral (loop) regions (indicated in orange, Figure 5d). […] For all other nonidentical aa (indicated in magenta, Figure 5d), we generated variants with single aa substitutions. The humanized variants A60V, N68K, T93I, and C97F were inactivated by Ai but not NG-497 (Figure 5a).
(§3) Experimental details, materials, and methods
(§4) Expression of recombinant ATGL constructs and preparation of cell lysates. Expi293 cells were cultivated in Expi293 Expression Medium (GIBCO, Thermo Fisher Scientific, Waltham, USA) at standard conditions (37°C, 5% CO2, 95% humidified atmosphere, 125 rpm). DNA constructs containing ATGL from different species and chimeric ATGL variants in pcDNA3.1(+)myc-His C Vector were obtained from BioCat GmbH (Heidelberg, Germany). Cells were transfected with ExpiFectamine293 Transfection Kit (GIBCO) in Opti-Mem reduced serum medium (GIBCO) according to the manufacturer’s instructions. After 48 h, cells were harvested by centrifugation and washed three times with PBS. Cells were disrupted in buffer A (0.25 M sucrose, 1 mM EDTA, 1 mM dithiothreitol, 20µg/ml leupeptin, 2 µg/ml antipain, 1 µg/ml pepstatin, pH 7.0) by sonication (Virsonic 475, Virtis, Gardiner, USA). Nuclei and debris were removed by centrifugation at 1,000 g and 4°C for 10 min. Protein concentrations were determined using Bio-Rad protein assay (Bio-Rad 785, Bio-Rad Laboratories, Munich, Germany) using BSA as standard.
(§5) Expression and purification of mouse CGI-58. CGI-58 was expressed and purified as described 1. In brief, the coding sequence of mouse Cgi-58 was cloned into pHis-Sumo and co-transformed with the plasmid pTf16 expressing the chaperone Tig into E. coli BL21(DE3). Cells were cultured overnight at 37°C and 180 rpm in the presence of 40 µg/ml kanamycin and 34 µg/ml chloramphenicol. Thereafter, cells were transferred into fresh LB medium, grown until OD600 of 0.6, and expression was induced by the addition of 0.5 mM IPTG. After overnight incubation at 30°C, cells were harvested at 4,500 x g and 4°C for 20 min, […]

mouse ATGL A60V = biological target: T2, mouse ATGL A60V (Mus musculus, UniProt Q8BJ56, A60V); conditions: variant A60V, NG-497 (10 μM) or Atglistatin (10 μM)
T2 construct: host or cells: Expi293 cells, cell lysate
T2 sequence (Q8BJ56 whole entry A60V): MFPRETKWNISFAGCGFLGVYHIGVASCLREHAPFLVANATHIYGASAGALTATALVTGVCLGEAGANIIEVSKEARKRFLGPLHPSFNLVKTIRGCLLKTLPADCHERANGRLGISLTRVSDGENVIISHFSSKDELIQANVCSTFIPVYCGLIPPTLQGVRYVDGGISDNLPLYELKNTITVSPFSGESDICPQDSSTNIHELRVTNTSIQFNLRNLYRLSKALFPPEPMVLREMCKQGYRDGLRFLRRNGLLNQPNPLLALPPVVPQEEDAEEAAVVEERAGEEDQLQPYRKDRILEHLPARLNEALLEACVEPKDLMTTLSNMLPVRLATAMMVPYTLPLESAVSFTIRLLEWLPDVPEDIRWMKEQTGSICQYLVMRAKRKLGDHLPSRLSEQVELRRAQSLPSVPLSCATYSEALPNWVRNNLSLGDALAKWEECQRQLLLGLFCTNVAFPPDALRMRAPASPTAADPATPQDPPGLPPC
Experimental: as §1, §2, §3, §4, §5

mouse ATGL T93I = biological target: T3, mouse ATGL T93I (Mus musculus, UniProt Q8BJ56, T93I); conditions: variant T93I, NG-497 (10 μM) or Atglistatin (10 μM)
T3 construct: host or cells: Expi293 cells, cell lysate
T3 sequence (Q8BJ56 whole entry T93I): as the sequence (Q8BJ56 whole entry A60V) above, with V60A, T93I counted along it
Experimental: as §1, §2, §3, §4, §5

Measured: inhibition of TAG hydrolase activity

T1 sequence (Q8BJ56 whole entry C97F): as the sequence (Q8BJ56 whole entry A60V) above, with V60A, C97F counted along it

CN(C)C(=O)Nc1cccc(-c2ccc(N(C)C)cc2)c1 [Atglistatin, reference compound]
inactivated: all assays above
